Data: patent US20240218399A1, “LIPID COMPOUNDS AND LIPID NANOPARTICLE COMPOSITIONS” (SUZHOU ABOGEN BIOSCIENCES CO., LTD., priority 2021, published 2024)

What was measured:
Hela cells = experiment: In vitro GFP mRNA expression from LNP formulations; type: cell-based; conditions: for in vitro GFP expression of LNP formulated using sphingomyelin with this cationic lipid: FIG. 3C
Experimental: (§1) Lipid nanoparticles encapsulating green fluorescent protein (GFP) mRNA were prepared as described above. Hela cell line was seeded in a 96-well plate. LNP formulation was mixed with 10 μg/mL ApoE at 1:1 (v/v) ratio, then added to the cells at 200 ng/well or 400 ng/well concentrations, and incubated for 36 to 48 hours. GFP intensity was measured with […] following manufacturer's instructions, and fluorescence intensity (relative light units; RLU) of different groups were plotted in FIG. 3A to 3C, showing the mean value and standard deviation (SD) of at least five repeated experiments for each group.
as §1, with “Hela” for “Lipid nanoparticles encapsulating green fluorescent protein (GFP) mRNA were prepared as described above. Hela”, “ratio at 37° C. for 15 min,” for “ratio,”, “at” for “at 200 ng/well or”, “8,” for “3A to 3C,”, “three” for “five”

female ICR mice = experiment: In vivo hEPO mRNA expression, serum hEPO after tail vein injection; conditions: 0.5 mg/kg tail vein; for in vivo mRNA expression of sphingomyelin-containing LNP compared to corresponding DSPC control formulation: FIG. 9; for hEPO protein expression level in mice among formulations of Table 6.7: FIG. 7, sphingomyelin of different tail length
Experimental: Lipid nanoparticles encapsulating human erythropoietin (hEPO) mRNA were prepared as described above, and systemically administered to 6-8 week old female ICR mice (Xipuer-Bikai, Shanghai) at 0.5 mg/kg dose by tail vein injection. Mice were euthanized by CO2 overdoses at 6 hours post administration, and blood samples were taken for hEPO measurement. Particularly, serum were separated from total blood by centrifugation at 5000 g for 10 minutes at 4° C., snap-frozen and stored at −80° C. for analysis. The serum hEPO level was measured using an ELSA assay carried out using a commercial kit (DEP00, R&D systems) according to manufacturer's instructions. The hEPO expression levels (μg/ml) measured from the tested group are plotted in FIG. 4, showing the mean value and standard deviation (SD) of at least five repeated experiments (test animals) for each group.
(§2) Each LNP formulation was systemically administered to 6-8 week old female ICR mice (Xipuer-Bikai, Shanghai) at 0.5 mg/kg dose by tail vein injection, and blood samples were taken for hEPO measurement as described herein. The hEPO expression levels (μg/ml) measured from the tested group are plotted in FIG. 6, showing the mean value and standard deviation (SD) of at least five repeated experiments (test animals) for each group.
as §2, with “7,” for “6,”
as §2, with “9,” for “6,”, “group. As shown, for each of the tested cationic lipids, the average in vivo expression level of mRNA was higher for the sphingomyelin containing composition as compared to the corresponding control formulation containing an equivalent amount of DSPC instead of sphingomyelin.” for “group.”

## CCCCCCCCC(CCCCCCCC)CNC(=O)CCCCCN(CCO)CCN(CCCCCC(=O)OCC(CCCCCCCC)CCCCCCCC)C1CCC1 [Formulation C3]
Hela cells; GFP mRNA, 400 ng/well, FIG. 8
  in vitro mRNA expression of sphingomyelin-containing LNP compared to corresponding DSPC control formulation: significantly higher

## CCCCCCCCC(CCCCCC)C(=O)OCCCCCCN(CCCCO)CCCCCCOC(=O)C(CCCCCC)CCCCCCCC (stereo not drawn) [ALC-0315, reference compound]
Female ICR mice
  in vivo mRNA expression of sphingomyelin-containing LNP compared to corresponding DSPC control formulation: significantly higher

## CCCCC/C=C\C/C=C\CCCCCCCC(=O)OCCCCCCN(CCO)CCCCC(COC(=O)CCCCCCC)COC(=O)CCCCCCC [Formulation C16]
Female ICR mice
  in vivo mRNA expression of sphingomyelin-containing LNP compared to corresponding DSPC control formulation: significantly higher

## CCCCCCCCCOC(=O)CCCCCCCN(CCO)CCCCCCCC(=O)OC(CCCCCCCC)CCCCCCCC [Lipid 5, reference compound]
Hela cells
  in vitro GFP expression of LNP formulated using sphingomyelin with this cationic lipid: enhanced in vitro GFP expression

## CCCCCCCCCCCCC/C=C/[C@@H](O)[C@H](COP(=O)([O-])OCC[N+](C)(C)C)NC(=O)CCCCCCCCCCCCC [SM-02, 14:0(d18:1/14:0)]
Female ICR mice
  hEPO protein expression level in mice among formulations of Table 6.7: highest protein expression level

## CCCCCCCC(=O)OCC(CCCCN(CCCCCO)CCCCC(COC(=O)CCCCCCC)COC(=O)CCCCCCC)COC(=O)CCCCCCC [Formulation C14]
Female ICR mice
  in vivo mRNA expression of sphingomyelin-containing LNP compared to corresponding DSPC control formulation: significantly higher

## CCCCCCCCC(CCCCCC)COC(=O)CCCCCN(CCCCCC(=O)OCC(CCCCCC)CCCCCCCC)CCN(CCO)C1CCC1 (stereo not drawn) [Formulation C1]
Hela cells
  in vitro GFP expression of LNP formulated using sphingomyelin with this cationic lipid: enhanced in vitro GFP expression
Female ICR mice
  in vivo mRNA expression of sphingomyelin-containing LNP compared to corresponding DSPC control formulation: significantly higher

## CCCCCCCCCCCCC/C=C/[C@@H](O)[C@H](COP(=O)([O-])OCC[N+](C)(C)C)NC(=O)CCCCCCCCCCCCCCC [SM-03, 16:0(d18:1/16:0)]
Female ICR mice
  hEPO protein expression level in mice among formulations of Table 6.7: highest protein expression level
